# Earlier results in patent publication US7829717B2, “(Arylamidoaryl)squaramide compounds” (OSI Pharmaceuticals, Inc., priority 2004, dated 2010).
# Counter-ions that a name gives are not always drawn.
# Tested on: MO7e human leukemia cells
compound,measurement,setting,value
"Cc1ccc(NC(=O)c2ccc(CN3CCN(C)CC3)cc2)cc1Nc1nccc(-c2cccnc2)n1 [Gleevec, imatinib mesylate]",GM-CSF stimulated growth of MO7e human leukemia cells,GM-CSF stimulated,not affected
same,Kit ligand-stimulated growth of MO7e human leukemia cells,Kit ligand-stimulated,inhibited
